Measured values as given in article PMC8205225, “Structural Basis of Metallo-β-lactamase Inhibition by N-Sulfamoylpyrrole-2-carboxylates” (ACS Infectious Diseases, 2021).
Like-named read-outs stand apart in the source and are kept apart here.

What was measured:
NDM-1 [1] = molecular target: T1, NDM-1 (Klebsiella pneumoniae, UniProt C7C422); assay: fluorogenic cephalosporin FC5 MBL inhibition assay, NDM-1; type: biochemical; details: for IC50: FC5 5 μM, enzyme 20 pM, quadruplicate, read-out: pIC50 NDM-1 (converted); for activity (IC50) for inhibition of NDM-1, in words: FC5 assay
T1 construct: made in house
Procedure: (§1) The NSPCs were screened against four of the currently most clinically relevant B1 MBLs, i.e. VIM-1, VIM-2, NDM-1, and IMP-1 (Table 1), using an assay employing the “fluorogenic” cephalosporin FC5.[40]
(§2) The inhibitory activity of NSPCs 6, 8-14 against representative B1 subfamily MBLs [obtained according to previously reported production and purification procedures: VIM-1,5 VIM-2, NDM-1 and IMP-16] was determined using a fluorogenic assay monitoring the enzymatic breakdown of the cephalosporin probe FC5.6 The FC5/meropenem assays were conducted at room temperature in clear-bottomed Greiner 384 black well microplates (FC5) or Greiner 96 well UV star microplates (meropenem), using a ClarioStar or PHERAstar FS microplate reader (BMG LabTech). Representative β-lactamases were tested at the following concentrations:
(§3) VIM-1, 100 pM; NDM-1, 20 pM; IMP-1, 20 pM; and VIM-2, 500 pM. The concentration of FC5 employed was 5 μM for all enzymes. IMP-1, VIM-1, VIM-2 and NDM-1 inhibition assays were screened in “MBL buffer” (50 mM HEPES, pH 7.2, 1 μM ZnSO4, 1 μg mL−1 BSA, 0.01% v/v Triton X-100). The initial rates of reaction (measured after 10 min pre-incubation of the NSPC with the enzyme) were assessed by monitoring the fluorescence intensity at λex = 380 nm and λem = 460 nm. Following the determination of initial rates of reaction, the data were fitted using a four-parameter function: log (inhibitor) vs. response, variable slope in GraphPad Prism 6 to obtain IC50 values.6, 7

IMP-1 [2] = molecular target: T2, IMP-1 (Serratia marcescens, UniProt P52699); assay: fluorogenic cephalosporin FC5 MBL inhibition assay, IMP-1; type: biochemical; details: FC5 5 μM, enzyme 20 pM, quadruplicate; read-out: pIC50 IMP-1 (converted)
T2 construct: made in house
Procedure: as §1, §2, §3

VIM-2 [3] = molecular target: T3, VIM-2 (Escherichia coli, UniProt Q5U7L7); assay: fluorogenic cephalosporin FC5 MBL inhibition assay, VIM-2; type: biochemical; details: FC5 5 μM, enzyme 500 pM, quadruplicate; read-out: pIC50 VIM-2 (converted)
T3 construct: made in house
Procedure: as §1, §2, §3

VIM-1 [4] = molecular target: T4, VIM-1 (Pseudomonas aeruginosa, UniProt A0A0F7KYQ8); assay: fluorogenic cephalosporin FC5 MBL inhibition assay, VIM-1; type: biochemical; details: FC5 5 μM, enzyme 100 pM, quadruplicate; for IC50: read-out: pIC50 VIM-1 (converted)
T4 construct: made in house
Procedure: as §1, §2, §3

VIM-2 [5] = molecular target: T3, VIM-2; details: determined using 100 μM nitrocefin; cited from earlier work
IMP-1 [6] = molecular target: T2, IMP-1; details: determined using 100 μM nitrocefin; cited from earlier work
NDM-1 [7] = molecular target: T1, NDM-1; details: determined using 100 μM nitrocefin; cited from earlier work
VIM-2 [8] = molecular target: T3, VIM-2; parameters: method as in PMID 32184250; details: determined by measuring hydrolysis of imipenem; cited from earlier work
IMP-1 [9] = molecular target: T2, IMP-1; parameters: method as in PMID 32184250; details: determined by measuring hydrolysis of imipenem; cited from earlier work
NDM-1 [10] = molecular target: T1, NDM-1; parameters: method as in PMID 32184250; details: determined by measuring hydrolysis of imipenem; cited from earlier work
[11] = tested on: K. pneumoniae B68-1 blaNDM-1; parameters: method as in PMID 31454231; details: strain B68-1, VNRX at 10 μg mL^–1 (printed in the [I] 8 row); cited from earlier work
E. coli S117 blaNDM-1 = tested on: E. coli S117 blaNDM-1; parameters: method as in PMID 31454231; details: strain S117, VNRX at 10 μg mL^–1 (printed in the [I] 8 row); cited from earlier work
[12] = tested on: K. pneumoniae IR43 blaNDM-1; parameters: method as in PMID 31454231; details: strain IR43, VNRX at 10 μg mL^–1 (printed in the [I] 8 row); cited from earlier work
VIM-2 [13] = molecular target: T3, VIM-2; details: cited from earlier work
E. coli IR57 blaNDM-1 = tested on: E. coli IR57 blaNDM-1; parameters: method as in PMID 31454231; details: strain IR57, VNRX at 10 μg mL^–1 (printed in the [I] 8 row); cited from earlier work
VIM-1 [14] = molecular target: T4, VIM-1; details: cited from earlier work
IMP-1 [15] = molecular target: T2, IMP-1; details: cited from earlier work

T1 sequence (C7C422 29-270, looked up, species assumed): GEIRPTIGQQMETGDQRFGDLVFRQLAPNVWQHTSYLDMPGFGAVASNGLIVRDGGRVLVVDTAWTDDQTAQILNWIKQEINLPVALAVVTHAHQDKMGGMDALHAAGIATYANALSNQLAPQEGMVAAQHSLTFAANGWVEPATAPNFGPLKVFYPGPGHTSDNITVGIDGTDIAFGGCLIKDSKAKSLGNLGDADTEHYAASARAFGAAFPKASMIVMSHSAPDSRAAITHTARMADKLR
T2 sequence (P52699 19-246, looked up, species assumed): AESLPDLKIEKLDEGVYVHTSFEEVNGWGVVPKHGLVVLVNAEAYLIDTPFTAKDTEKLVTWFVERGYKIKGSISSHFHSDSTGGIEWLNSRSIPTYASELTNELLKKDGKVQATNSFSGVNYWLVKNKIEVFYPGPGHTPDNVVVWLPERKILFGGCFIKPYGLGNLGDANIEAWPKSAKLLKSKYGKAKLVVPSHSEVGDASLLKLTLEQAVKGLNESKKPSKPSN

Structure (SMILES)	IC50 (NDM-1 [1]) [µM]	IC50 (IMP-1 [2]) [µM]	IC50 (VIM-2 [3]) [µM]	IC50 (VIM-1 [4]) [µM]	also measured
NS(=O)(=O)n1ccc(-c2ccc(F)cc2)c1C(=O)O [6a, 3-(4-Fluorophenyl)-1-sulfamoyl-1H-pyrrole-2-carboxylic acid]	0.00794	0.000631	0.02	0.126	activity (IC50) for inhibition of NDM-1, in words (NDM-1 [1]): nanomolar potency
NS(=O)(=O)n1ccc(-c2ccc(F)cc2)c1C(=O)[O-].[Na+] [6b]	0.00631	0.00126	0.0316	–	activity (IC50) for inhibition of NDM-1, in words (NDM-1 [1]): nanomolar potency; pIC50 VIM-1 (VIM-1 [4]): 6.9
NS(=O)(=O)n1ccc(-c2ccc(C3CCNCC3)cc2)c1C(=O)O [AMRC276]	–	–	–	–	pIC50 VIM-2 (VIM-2 [5]): 4.2[22]; pIC50 IMP-1 (IMP-1 [6]): 7.4[22]; pIC50 NDM-1 (NDM-1 [7]): 6.8[22]
NS(=O)(=O)n1ccc(-c2ccc(=O)[nH]c2)c1C(=O)O [AMRC364]	–	–	–	–	pIC50 VIM-2 (VIM-2 [5]): 4.4[22]; pIC50 IMP-1 (IMP-1 [6]): 5.7[22]; pIC50 NDM-1 (NDM-1 [7]): 5.6[22]
CS(=O)(=O)c1ccc(-c2ccn(S(N)(=O)=O)c2C(=O)O)cc1 [AMRC439]	–	–	–	–	pIC50 VIM-2 (VIM-2 [5]): 4.3[22]; pIC50 IMP-1 (IMP-1 [6]): 6.3[22]; pIC50 NDM-1 (NDM-1 [7]): 6.4[22]
CCc1c(C(=O)O)c(S(N)(=O)=O)c(CC)n1C [SPC]	–	–	–	–	pIC50 VIM-2 (VIM-2 [8]): 7.7[21]; pIC50 IMP-1 (IMP-1 [9]): 6.6[21]; pIC50 NDM-1 (NDM-1 [10]): 6.0[21]
NC(=O)c1ccc(-c2ccn(S(N)(=O)=O)c2C(=O)O)cc1 [compound 8]	0.0126	0.00251	0.158	0.0794	–
Nc1ccc(-c2ccn(S(N)(=O)=O)c2C(=O)[O-])cn1.[Na+] [compound 9]	0.0126	0.001	0.2	0.316	pIC50 VIM-2 (VIM-2 [5]): 4.5[22]; pIC50 IMP-1 (IMP-1 [6]): 6.4[22]; pIC50 NDM-1 (NDM-1 [7]): 6.1[22]
NS(=O)(=O)n1ccc(-c2cn[nH]c2)c1C(=O)O [compound 10]	0.00794	0.00126	0.0158	0.0794	activity (IC50) for inhibition of NDM-1, in words (NDM-1 [1]): nanomolar potency
Nc1ncc(-c2ccn(S(N)(=O)=O)c2C(=O)O)cn1 [compound 11]	0.0126	0.00631	0.0501	0.0398	–
N=C1NCC(c2ccn(S(N)(=O)=O)c2C(=O)O)CN1 (centres unmarked) [compound 12]	0.316	0.0501	0.0126	0.00316	–
NS(=O)(=O)n1ccc(-c2ccc(N3CCOCC3)cc2)c1C(=O)O [compound 13]	0.00158	< 0.000631	0.158	0.251	activity (IC50) for inhibition of NDM-1, in words (NDM-1 [1]): nanomolar potency
Nc1nc2ccc(-c3ccn(S(N)(=O)=O)c3C(=O)O)cn2n1 [compound 14, 3-(2-Amino-[1,2,4]triazolo[1,5-a]pyridin-6-yl)-1-sulfamoyl-1H-pyrrole-2-carboxylic acid]	0.0126	0.00501	0.00631	0.0398	–
NCCN[C@H]1CC[C@H](CC(=O)N[C@H]2Cc3cccc(C(=O)O)c3OB2O)CC1 [taniborbactam]	–	–	–	–	MIC of MEM in combination with VNRX [11]: 0.5 μg mL^–1; MIC of MEM in combination with VNRX (E. coli S117 blaNDM-1): 1 μg mL^–1; MIC of MEM in combination with VNRX [12]: 0.25 μg mL^–1; pIC50 VIM-2 (VIM-2 [13]): 8.3[41]; MIC of MEM in combination with VNRX (E. coli IR57 blaNDM-1): 0.5 μg mL^–1; pIC50 VIM-1 (VIM-1 [14]): 8.1[41]; pIC50 IMP-1 (IMP-1 [15]): 5.6[41]
